In patent US11351125B2, “Poly(n-butyl cyanoacrylate) nanoparticle with dual modifications, preparation method and use thereof” (Xuanwu Hospital of Capital Medical University, priority 2016, dated 2022):

Legend:
[1] = Pharmacokinetics of docetaxel after intravenous administration in rats; assay type: in vivo, Wistar rats; conditions: rat, HPLC
Procedure: 6- to 8-week old male Wistar rats were subjected to jugular vein catheterization. […] The rats were administered with a docetaxel solution (a free drug) and docetaxel-loaded PBCA nanoparticles with dual modifications by PEG20000-cholesterol, respectively. […] After treatment, the content of docetaxel in the blood was determined by HPLC.

[2] = system: 4T1 cells (mouse breast cancer cells); test: Inhibition of tumor cell proliferation in vitro, MTT; assay type: cell-based; conditions: 0.0001 nmol/ml (as docetaxel), 24 h
Procedure: (2) Method: MTT method was used to determine the proliferation state of tumor cells. The particular steps were as followed: 4T1 cells (mouse breast cancer cells) in the logarithmic growth phase were digested and counted, and then seeded to a 96-well plate at a density of 5×10^4/well. […] After further incubation for 24 h and 48 h, respectively, the old medium was pipetted off, and a medium containing 0.5 mg/ml MTT was added to each well. After further incubation for 4 h, the medium was pipetted off, and washing with PBS was performed twice. DMSO (200 μl) was added to dissolve the formazan crystal, and shaking was performed in dark for 10 min; and then the OD value of each well at 490 nm was determined by ELISA instrument. The OD value of the cells incubated without the addition of drug was used as control (100%), and the cell viability for each drug groups were calculated, so as to study the proliferation state of tumor cells, wherein 5 parallel wells were set for each group.

[3] = Brain tissue distribution of docetaxel in rats; assay type: in vivo, Wistar rats; conditions: rat, tail vein injection, HPLC
Procedure: The rats were subjected to tail vein injection with a docetaxel solution (a free drug), and docetaxel-loaded PBCA nanoparticles with dual modifications by PEG20000-cholesterol, respectively. The rats were killed at different time points after administration, respectively, and the brain tissues were taken, washed with physiological saline and weighed. After treatment, the content of docetaxel in the brain tissue was determined by HPLC.

[4] = Brain tissue distribution of coumarin-6 in rats, Experiment 1 (time course); assay type: in vivo, Wistar rats; conditions: rat, tail vein injection
Procedure: (1) Method: 6- to 8-week old male Wistar rats were randomly divided into 3 groups, with 21 rats for each group. The rats were subjected to tail vein injection with an equimolar amount of a coumarin-6 solution (a free drug), coumarin-6-loaded nanoparticles with single modification by cholesterol and PBCA nanoparticles with dual modifications by PEG20000-cholesterol as prepared in Example 1, respectively. The rats were killed at different time points (15 min, 30 min, 1 h, 2 h, 4 h, 8 h, 12 h) after administration, brain tissues were taken, and the content of coumarin-6 in brain was determined.

[5] = rat
Procedure: (2) Method: 6- to 8-week old male Wistar rats were randomly divided into 3 groups, with 6 rats for each group. The rats were anesthetized by intraperitoneal injection of a pentobarbital solution (40 mg/kg), and jugular vein catheterization was performed. […] After treatment, the content of coumarin-6 in the blood was determined.

## CC(=O)O[C@@]12CO[C@@H]1C[C@H](O)[C@@]1(C)C(=O)[C@H](O)C3=C(C)[C@@H](OC(=O)[C@H](O)[C@@H](NC(=O)OC(C)(C)C)c4ccccc4)C[C@@](O)([C@@H](OC(=O)c4ccccc4)[C@H]21)C3(C)C [docetaxel]
[1]
  sustained release in vivo (docetaxel detectable in blood): < 2 h
[2]
  cell viability of the tumor cells: no significant change
[3]
  docetaxel in the brain after intravenous administration: could not be detected in the brain

## coumarin-6 [Free drug]
[4]; 15 min-12 h
  content of coumarin-6 in the brain tissue: ≤ 50 ng/g brain tissue
[4]; 8 h
  coumarin-6 in the brain tissue 8 h after administration: no coumarin-6 was detected
[5]
  release time in vivo (coumarin-6 detectable in blood): ≤ 4 h
[5]; in vivo, iv
  AUC0-t: 15.8 ± 2.4 µg·min/mL
  AUC0-∞: 16.0 ± 2.3 µg·min/mL
  C0: 828.4 ± 139.0 ng/mL
  CL: 6.4 ± 0.9 mL/min
  Vd, λz: 0.6 ± 0.3 L
  t1/2, λz: 1 ± 0.4 h
